Test results: US20210284668A1, “GOLD (I)-PHOSPHINE 1,2,3-TRIAZOLE DERIVATIVES WITH ANTIBIOTIC PROPERTIES” (Centre National de la Recherche Scientifique, priority 2018, published 2021)
Several values for one entry are separate records, joined by “and”; a condition that tells them apart may be missing. Identical values can stand only once.

Experiments:
E. faecium BM4147 = experiment: MIC by microdilution, E. faecium BM4147; format: cell-based, Enterococcus faecium; set-up: unit not given here; conditions: E. faecium BM4147 (VanA positive, glycopeptide resistant), in duplicate
Outline: (§1)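 Broth microdilution per CLSI (M07-A10) in Mueller-Hinton broth, run in duplicate; MIC recorded as minimal inhibitory concentration. Panel spans wild-type to multidrug-resistant strains, e.g. S. aureus ATCC700699 (MecA+, glycopeptide resistant), S. epidermidis ATCC35984 (MecA+), E. coli ATCC25922 (wild-type).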

[1] = system: panel of Gram-positive and Gram-negative strains; experiment: Antibacterial profile on the selected panel of strains; format: cell-based
Outline: (§2)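 MICs determined in duplicate by CLSI broth microdilution (M07-A10) in Mueller-Hinton broth. S. aureus ATCC700699: MecA positive, glycopeptide resistant; S. epidermidis ATCC35984: MecA positive; E. coli ATCC25922: wild-type. Panel spans Gram-positive and Gram-negative strains from wild-type to multi-drug resistant.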

E. faecium AUS0004 = experiment: MIC by microdilution, E. faecium AUS0004; format: cell-based, Enterococcus faecium; conditions: E. faecium AUS0004 (VanB positive, glycopeptide resistant), in duplicate
Outline: as §1

E. faecalis UCN41 = experiment: MIC by microdilution, E. faecalis UCN41; format: cell-based, Enterococcus faecalis; set-up: unit not given here; conditions: E. faecalis UCN41 (VanA positive, glycopeptide resistant), in duplicate
Outline: as §1

E. faecalis V583 = experiment: MIC by microdilution, E. faecalis V583; format: cell-based, Enterococcus faecalis; conditions: E. faecalis V583 (VanB positive, glycopeptide resistant), in duplicate
Outline: as §2

S. epidermidis ATCC14990 = experiment: MIC by microdilution, S. epidermidis ATCC14990; format: cell-based, Staphylococcus epidermidis; conditions: S. epidermidis ATCC14990 (MecA negative, wild-type), in duplicate
Outline: as §2

S. epidermidis ATCC35984 = experiment: MIC by microdilution, S. epidermidis ATCC35984; format: cell-based, Staphylococcus epidermidis; conditions: S. epidermidis ATCC35984 (MecA positive), in duplicate
Outline: as §2

S. aureus ATCC25923 = experiment: MIC by microdilution, S. aureus ATCC25923; format: cell-based, Staphylococcus aureus; conditions: S. aureus ATCC25923 (MecA negative, wild-type), Mueller-Hinton broth, in duplicate
Outline: as §1

E. coli ATCC25922 = experiment: MIC by microdilution, E. coli ATCC25922; format: cell-based, Escherichia coli; conditions: E. coli ATCC25922 (wild-type), in duplicate
Outline: as §2

S. aureus ST20131365 = experiment: MIC by microdilution, S. aureus ST20131365; format: cell-based, Staphylococcus aureus; conditions: S. aureus ST20131365 (MecA positive, glycopeptide resistant), in duplicate
Outline: as §2

S. aureus ATCC700699 = experiment: MIC by microdilution, S. aureus ATCC700699; format: cell-based, Staphylococcus aureus; set-up: unit not given here; conditions: S. aureus ATCC700699 (MecA positive, glycopeptide resistant), in duplicate
Outline: as §2

E. faecalis JH2-2 = experiment: MIC by microdilution, E. faecalis JH2-2; format: cell-based, Enterococcus faecalis; set-up: unit not given here; conditions: E. faecalis JH2-2 (wild-type), in duplicate
Outline: as §1

S. aureus ATCC29213 = experiment: MIC by microdilution, S. aureus ATCC29213; format: cell-based, Staphylococcus aureus; conditions: S. aureus ATCC29213 (MecA negative, wild-type), Mueller-Hinton broth, in duplicate
Outline: as §1

human hepatocyte = experiment: Human hepatocyte cytotoxicity profile; format: cell-based; conditions: human hepatocytes
Protocol: FIG. 1 is a diagram representing the TMB3 human hepatocyte cytotoxicity between 7 to 25 μM (FIG. 1 A) and the ampicillin human hepatocyte cytotoxicity between 7 to 25 μM (control) (FIG. 1B. In the diagram, the abscissa represents the concentration in Log per μM and the ordinate the viability of the cells in percentage compared to the human hepatocyte culture without ampicillin trihydrate or TMB3.
The human hepatocyte cytotoxicity profile has been evaluated between 7 and 25 μM for TMB derivatives as a toxicity appeared from 25 μM for the initial hit TMB3 during a preliminary assessment.

E. faecium ATCC19434T = experiment: MIC by microdilution, E. faecium ATCC19434T; format: cell-based, Enterococcus faecium; set-up: unit not given here; conditions: E. faecium ATCC19434T (wild-type), in duplicate
Outline: as §1

CC[P+](CC)(CC)[Au-][c]1nn[nH]c1COC(=O)NC(C(=O)NC1C(=O)N2C1SC(C)(C)C2C(=O)O)c1ccccc1 (centres unmarked) [TMB3]
Minimal Inhibitory Concentration (MIC) (E. faecium BM4147): 2 and 1
MICs measured, as range of concentrations ([1]; depending on the bacteria strains): 0.08 to 0.63 µM
antimicrobial / antibacterial activity (in words) ([1]; summary of Tables 1-12): have antimicrobial activity
Minimal Inhibitory Concentration (MIC) (E. faecium AUS0004): 1
Minimal Inhibitory Concentration (MIC) (E. faecalis UCN41): 1 and 0.5
Minimal Inhibitory Concentration (MIC) (E. faecalis V583): 1
Minimal Inhibitory Concentration (MIC) (S. epidermidis ATCC14990): ≤0.06
Minimal Inhibitory Concentration (MIC) (S. epidermidis ATCC35984): ≤0.06
Minimal Inhibitory Concentration (MIC) (S. aureus ATCC25923): 0.125 and 0.25
Minimal Inhibitory Concentration (MIC) (E. coli ATCC25922): >8
Minimal Inhibitory Concentration (MIC) (S. aureus ST20131365): 0.125 and 0.25
Minimal Inhibitory Concentration (MIC) (S. aureus ATCC700699): 0.125 and 0.25
Minimal Inhibitory Concentration (MIC) (E. faecalis JH2-2): 0.5 and 1
Minimal Inhibitory Concentration (MIC) (S. aureus ATCC29213): 0.125 and 0.25
concentration at which cytotoxicity appears (human hepatocyte; evaluated between 7 and 25 μM): 20 µM
concentration from which toxicity appeared (human hepatocyte; preliminary assessment): 25 µM
Minimal Inhibitory Concentration (MIC) (E. faecium ATCC19434T): 1 and 0.5
